{"source": "patent US20210323940A1", "about": "(OCEANS LTD., priority 2018, published 2021)", "key": {"A549 (lung carcinoma)": {"tested_on": "A549 (lung carcinoma)", "test": "CIMA assay (tetrazolium reduction, cell viability, 72 h)", "assay_type": "cell-based, human", "conditions": "Homo sapiens", "method": "(§1) Prepared extracts were assessed following chronic exposure conditions in which cells were seeded at 2×10^3 cells/well (96 wells-plate) and incubated with test compounds for 72 h. Each compound was evaluated over a range of concentrations (0, 10, 25, 50 or 100 μg/ml). Cell proliferation was initially assessed using a standard colorimetric indicator of metabolic activity (CIMA) assay. In this assay, tetrazole reduction was evaluated as a measure of metabolic function that evaluates mitochondrial activity to determine the extent of cell proliferation within a culture. This assay is based on the reduction of yellow tetrazolium salt to purple formazan by mitochondrial reductases enzyme in viable cells, resulting in a color change that confers a change in absorbance. Seven human cell lines were selected for primary evaluation: U373 (glioblastoma-astrocytoma), A549 (lung carcinoma), THP-1 (acute monocytic leukemia), MCF7 (mammary gland adenocarcinoma), SKOV3 (ovarian adenocarcinoma), PC3 (prostate adenocarcinoma) and CCD1079SK (fibroblast, noncancerous but proliferating) (see FIG. 2 and Table 2). Results are expressed in Table 2 as % viability (means±standard deviation of three replicates), with LD50/IC50 values in Tables 3 and 6. […] The maximum DMSO concentration was 1% at 100 μg/ml with 5% SDS used as a known toxic inducer.\n(§2) Experimental: Stock solutions of the test compounds were prepared in dimethylsulfoxide (DMSO) at 10 mg/ml and stored at −20° C. until used. This preparation ensures that the DMSO content delivered to cells in culture never exceeds 1%. Appropriate cells number, based on previous assays, were seeded in 96 well plate and incubated with test compounds (up to 8 log concentrations, 0 to 50 or 100 μg/ml) for 72 h. Cell proliferation was initially assessed using a standard colorimetric indicator of metabolic activity (CIMA) assay. In this assay, reduction of yellow tetrazolium salt (MTT) to purple formazan by mitochondrial reductases enzymes in viable cells were measured as change in absorbance (λ=500-600).\n(§3) Seven human cell lines were evaluated: U373 (glioblastoma-astrocytoma), A549 (lung carcinoma), PC3 (prostate adenocarcinoma), THP1 (acute monocytic leukemia), MDA-MB-231 (mammary gland adenocarcinoma), SKOV3 (ovarian adenocarcinoma) and CCD1079Sk (normal skin fibroblast) cells."}, "[1]": {"tested_on": "CCD1079SK (fibroblast, noncancerous but proliferating)", "test": "CIMA assay (tetrazolium reduction, cell viability, 72 h)", "assay_type": "cell-based, human", "conditions": "Homo sapiens, Fibroblast; 1079SK; 72 h", "method": "as §1, §2, §3"}, "[2]": {"tested_on": "SKOV3 (ovarian adenocarcinoma)", "test": "CIMA assay (tetrazolium reduction, cell viability, 72 h)", "assay_type": "cell-based, human", "conditions": "Homo sapiens", "method": "as §1, §2, §3"}, "[3]": {"tested_on": "THP-1 (acute monocytic leukemia)", "test": "CIMA assay (tetrazolium reduction, cell viability, 72 h)", "assay_type": "cell-based, human", "conditions": "Homo sapiens", "method": "as §1, §2, §3"}, "[4]": {"tested_on": "U373 (glioblastoma-astrocytoma)", "test": "CIMA assay (tetrazolium reduction, cell viability, 72 h)", "assay_type": "cell-based, human", "conditions": "Homo sapiens, U373 MG", "method": "as §1, §2, §3"}, "[5]": {"tested_on": "PC3 (prostate adenocarcinoma)", "test": "CIMA assay (tetrazolium reduction, cell viability, 72 h)", "assay_type": "cell-based, human", "conditions": "Homo sapiens", "method": "as §1, §2, §3"}, "[6]": {"test": "CIMA assay (tetrazolium reduction, cell viability, 72 h)", "assay_type": "cell-based, human", "conditions": "human", "method": "as §1, §2, §3"}, "[7]": {"tested_on": "MDA-MB-231 breast cancer cells", "test": "Murine flank tumour model, synthesized compound (II) (DHODO): tumour volume", "assay_type": "in vivo, nude mice (strain J:NU)", "method": "Test material was dissolved in DMSO and the final injectable solution was prepared using PBS. Homozygous outbred nude mice (strain J:NU, 6-weeks old, female) suitable as immune-deficient tumour transplant hosts will be procured from a commercial supplier (Jackson Labs, Maine, USA) and acclimatized in a barrier facility (AVC) for one week. Mice were weighed and random groups of ten mice were established based on the tumour volume and body weight as follows: To establish the tumours, MDA-MB-231 breast cancer cells (2.5 million cells in 100 pl 50:50 matrigel:DMEM) were injected subcutaneously into both right and left flanks. Tumours were evaluated over a 2-week period until sufficient volume growth (approximately 20 mm3) for subsequent analysis had occurred. During this period, body weights were measured twice weekly. Mice with established tumours were treated every second day by intraperitoneal injections of test compounds over a 4-week time course. From each group a minimum of 15 tumours were selected for analysis. Tumours were measured weekly using external calipers and volumes established using the modified ellipsoidal formula: tumour volume=0.5 (length×width2). In addition, body weights and general animal health were assessed twice weekly during the treatment period. At study termination, mice were sacrificed and tumours excised from the flank was weighed. To evaluate tumour metastasis, an explorative necropsy was conducted in each mouse and the presence and frequency of additional tumours at sites distal to the flank were assessed."}, "tumour cell lines": {"tested_on": "tumour cell lines", "test": "CIMA assay, overall statements on the panel of human cell lines", "assay_type": "cell-based", "conditions": "synthetic compound, 72 h, listed as Synthesized compound II", "method": "Prepared extracts were assessed following chronic exposure conditions in which cells were seeded at 2×10^3 cells/well (96 wells-plate) and incubated with test compounds for 72 h. Each compound was evaluated over a range of concentrations (0, 10, 25, 50 or 100 μg/ml). Cell proliferation was initially assessed using a standard colorimetric indicator of metabolic activity (CIMA) assay. In this assay, tetrazole reduction was evaluated as a measure of metabolic function that evaluates mitochondrial activity to determine the extent of cell proliferation within a culture. This assay is based on the reduction of yellow tetrazolium salt to purple formazan by mitochondrial reductases enzyme in viable cells, resulting in a color change that confers a change in absorbance. […]\nCrude extract #1 was fractionated into five fractions by C-18 SPE column separation using 15 ml each of 5% methanol (fraction 1), 25% methanol (fraction 2), 50% methanol (fraction 3), 100% methanol (fraction 4) and methanol:dichloromethane (1:1) (fraction 5). Extracts were fractionated and the resulting fractions were evaluated using CIMA assay. […]\nExperimental: Stock solutions of the test compounds were prepared in dimethylsulfoxide (DMSO) at 10 mg/ml and stored at −20° C. until used. […] Cell proliferation was initially assessed using a standard colorimetric indicator of metabolic activity (CIMA) assay. […]"}, "[8]": {"conditions": "A549, read-out: average cell viability"}, "[9]": {"conditions": "SK-OV-3, read-out: average cell viability"}, "[10]": {"conditions": "THP-1, read-out: average cell viability"}, "[11]": {"conditions": "read-out: average cell viability"}}, "data": [{"smiles": "CCCCC[C@H](O)[C@H](O)/C=C/[C@@H]1CCCCCCCC(=O)O1", "note": "[compound (II), 12R, 13S-Dihydroxy-10-Octadecen-9S-olide]", "values": [{"measurement": "viability at 1 µg/mL", "setting": "A549 (lung carcinoma); [8]", "result": 95, "unit": "%"}, {"measurement": "viability at 10 µg/mL", "setting": "A549 (lung carcinoma); [8]", "result": 93, "unit": "%"}, {"measurement": "viability at 50 µg/mL", "setting": "A549 (lung carcinoma); [8]", "result": 92, "unit": "%"}, {"measurement": "viability at 100 µg/mL", "setting": "A549 (lung carcinoma); [8]", "result": 61, "unit": "%"}, {"measurement": "IC50", "setting": "A549 (lung carcinoma); A549, 72 h", "result": 22, "unit": "µg/mL"}, {"measurement": "IC50", "setting": "[1]", "result": 34.9, "unit": "µg/mL"}, {"measurement": "viability at 1 µg/mL", "setting": "[2]; [9]", "result": 97, "unit": "%"}, {"measurement": "viability at 10 µg/mL", "setting": "[2]; [9]", "result": 97, "unit": "%"}, {"measurement": "viability at 50 µg/mL", "setting": "[2]; [9]", "result": 94, "unit": "%"}, {"measurement": "viability at 100 µg/mL", "setting": "[2]; [9]", "result": 85, "unit": "%"}, {"measurement": "IC50", "setting": "[2]; SK-OV-3, SKOV3, 72 h", "result": 67.7, "unit": "µg/mL"}, {"measurement": "viability at 1 µg/mL", "setting": "[3]; [10]", "result": 96, "unit": "%"}, {"measurement": "viability at 10 µg/mL", "setting": "[3]; [10]", "result": 84, "unit": "%"}, {"measurement": "viability at 50 µg/mL", "setting": "[3]; [10]", "result": 68, "unit": "%"}, {"measurement": "viability at 100 µg/mL", "setting": "[3]; [10]", "result": 44, "unit": "%"}, {"measurement": "IC50", "setting": "[3]; THP-1, 72 h", "result": 25.9, "unit": "µg/mL"}, {"measurement": "viability at 1 µg/mL", "setting": "[4]; [11]", "result": 90, "unit": "%"}, {"measurement": "viability at 10 µg/mL", "setting": "[4]; [11]", "result": 85, "unit": "%"}, {"measurement": "viability at 50 µg/mL", "setting": "[4]; [11]", "result": 68, "unit": "%"}, {"measurement": "viability at 100 µg/mL", "setting": "[4]; [11]", "result": 3, "unit": "%"}, {"measurement": "IC50", "setting": "[4]; U373, 72 h", "result": 39.1, "unit": "µg/mL"}, {"measurement": "viability at 1 µg/mL", "setting": "[5]; [11]", "result": 100, "unit": "%"}, {"measurement": "viability at 10 µg/mL", "setting": "[5]; [11]", "result": 93, "unit": "%"}, {"measurement": "viability at 50 µg/mL", "setting": "[5]; [11]", "result": 97, "unit": "%"}, {"measurement": "viability at 100 µg/mL", "setting": "[5]; [11]", "result": 19, "unit": "%"}, {"measurement": "IC50", "setting": "[5]; PC3, 72 h", "result": 37.7, "unit": "µg/mL"}, {"measurement": "viability at 72 h, 1 ug/mL", "setting": "[6]", "result": 91, "unit": "%"}, {"measurement": "viability at 72 h, 10 ug/mL", "setting": "[6]", "result": 84, "unit": "%"}, {"measurement": "viability at 72 h, 50 ug/mL", "setting": "[6]", "result": 90, "unit": "%"}, {"measurement": "viability at 72 h, 100 ug/mL", "setting": "[6]", "result": 17, "unit": "%"}, {"measurement": "Tumour weight at necropsy", "setting": "[7]; 1 mg", "result": 0.0815, "unit": "g"}, {"measurement": "Tumour size expressed in volume", "setting": "[7]; 1 mg/kg, Week 0", "result": 40.59, "unit": "mm^3"}, {"measurement": "Tumour size expressed in volume", "setting": "[7]; 1 mg/kg, Week 1", "result": 36.34, "unit": "mm^3"}, {"measurement": "Tumour size expressed in volume", "setting": "[7]; 1 mg/kg, Week 2", "result": 65.15, "unit": "mm^3"}, {"measurement": "Tumour size expressed in volume", "setting": "[7]; 1 mg/kg, Week 3", "result": 82.66, "unit": "mm^3"}, {"measurement": "Tumour size expressed in volume", "setting": "[7]; 1 mg/kg, Week 4", "result": 110.23, "unit": "mm^3"}, {"measurement": "Tumour weight at necropsy", "setting": "[7]; 5 mg", "result": 0.0380, "unit": "g"}, {"measurement": "tumour growth", "setting": "[7]; 5 mg/kg", "result": "inhibited tumour growth"}, {"measurement": "Tumour volumes reduced by", "setting": "[7]; 5 mg/kg, intraperitoneal every second day, 4 weeks", "result": 50, "unit": "%"}, {"measurement": "Tumour size expressed in volume", "setting": "[7]; 5 mg/kg, Week 0", "result": 44.24, "unit": "mm^3"}, {"measurement": "Tumour size expressed in volume", "setting": "[7]; 5 mg/kg, Week 1", "result": 30.47, "unit": "mm^3"}, {"measurement": "Tumour size expressed in volume", "setting": "[7]; 5 mg/kg, Week 2", "result": 39.17, "unit": "mm^3"}, {"measurement": "Tumour size expressed in volume", "setting": "[7]; 5 mg/kg, Week 3", "result": 43.73, "unit": "mm^3"}, {"measurement": "Tumour size expressed in volume", "setting": "[7]; 5 mg/kg, Week 4", "result": 66.83, "unit": "mm^3"}, {"measurement": "Tumour weight at necropsy", "setting": "[7]; 10 mg", "result": 0.0913, "unit": "g"}, {"measurement": "Tumour size expressed in volume", "setting": "[7]; 10 mg/kg, Week 0", "result": 46.33, "unit": "mm^3"}, {"measurement": "Tumour size expressed in volume", "setting": "[7]; 10 mg/kg, Week 1", "result": 52.86, "unit": "mm^3"}, {"measurement": "Tumour size expressed in volume", "setting": "[7]; 10 mg/kg, Week 2", "result": 71.23, "unit": "mm^3"}, {"measurement": "Tumour size expressed in volume", "setting": "[7]; 10 mg/kg, Week 3", "result": 73.39, "unit": "mm^3"}, {"measurement": "Tumour size expressed in volume", "setting": "[7]; 10 mg/kg, Week 4", "result": 154.29, "unit": "mm^3"}, {"measurement": "reduction in tumour growth", "setting": "[7]; 1 and 10 mg/kg, early exponential tumour growth in these groups", "result": "No reduction in tumour growth"}, {"measurement": "antiproliferative activity in tumour cell lines", "setting": "tumour cell lines", "result": "significantly reduced tumour cell viability and growth in vitro"}]}]}
